According to PMC3428805 (Journal of Medicinal Chemistry, 2012):

How the values were obtained:
[1] = system: K562 cells; experiment: cells; format: cell-based; conditions: Homo sapiens, K562, 72 h, read-out: K562 cells, GI50
[2] = target: T1, Kif5a (Homo sapiens, UniProt Q12840); experiment: Kinesin panel, basal and MT-stimulated ATPase, Kif5a; format: biochemical; conditions: data not shown
T1 sequence (Q12840 1-1032): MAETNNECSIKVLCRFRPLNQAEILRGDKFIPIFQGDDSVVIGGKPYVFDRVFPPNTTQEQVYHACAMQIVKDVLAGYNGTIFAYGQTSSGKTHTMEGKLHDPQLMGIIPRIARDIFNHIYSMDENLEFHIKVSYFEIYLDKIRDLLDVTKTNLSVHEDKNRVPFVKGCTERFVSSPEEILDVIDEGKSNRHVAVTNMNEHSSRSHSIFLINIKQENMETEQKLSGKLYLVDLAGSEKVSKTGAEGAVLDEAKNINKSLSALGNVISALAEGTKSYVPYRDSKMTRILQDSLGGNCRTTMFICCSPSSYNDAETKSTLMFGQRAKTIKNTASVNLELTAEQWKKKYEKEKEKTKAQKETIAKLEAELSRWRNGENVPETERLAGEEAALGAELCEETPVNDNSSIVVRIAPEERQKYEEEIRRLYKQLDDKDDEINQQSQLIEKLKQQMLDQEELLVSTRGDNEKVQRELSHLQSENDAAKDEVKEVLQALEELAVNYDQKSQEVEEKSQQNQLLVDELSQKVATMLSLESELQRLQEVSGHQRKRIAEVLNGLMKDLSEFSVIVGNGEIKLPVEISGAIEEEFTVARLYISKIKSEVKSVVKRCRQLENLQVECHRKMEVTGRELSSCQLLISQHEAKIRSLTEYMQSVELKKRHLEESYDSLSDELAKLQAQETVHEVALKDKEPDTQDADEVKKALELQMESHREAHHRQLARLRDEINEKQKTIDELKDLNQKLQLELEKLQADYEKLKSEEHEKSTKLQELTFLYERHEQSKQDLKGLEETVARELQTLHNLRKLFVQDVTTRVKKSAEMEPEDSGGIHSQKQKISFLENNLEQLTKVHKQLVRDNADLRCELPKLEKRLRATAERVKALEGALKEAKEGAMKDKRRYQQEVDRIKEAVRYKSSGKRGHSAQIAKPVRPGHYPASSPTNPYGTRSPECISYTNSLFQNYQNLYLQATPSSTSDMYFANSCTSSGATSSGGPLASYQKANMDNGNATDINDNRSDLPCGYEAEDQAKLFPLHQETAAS

[3] = target: T2, Kif7 (Homo sapiens, UniProt Q2M1P5); experiment: Kinesin panel, basal and MT-stimulated ATPase, Kif7; format: biochemical; conditions: data not shown
T2 sequence (Q2M1P5 1-1343): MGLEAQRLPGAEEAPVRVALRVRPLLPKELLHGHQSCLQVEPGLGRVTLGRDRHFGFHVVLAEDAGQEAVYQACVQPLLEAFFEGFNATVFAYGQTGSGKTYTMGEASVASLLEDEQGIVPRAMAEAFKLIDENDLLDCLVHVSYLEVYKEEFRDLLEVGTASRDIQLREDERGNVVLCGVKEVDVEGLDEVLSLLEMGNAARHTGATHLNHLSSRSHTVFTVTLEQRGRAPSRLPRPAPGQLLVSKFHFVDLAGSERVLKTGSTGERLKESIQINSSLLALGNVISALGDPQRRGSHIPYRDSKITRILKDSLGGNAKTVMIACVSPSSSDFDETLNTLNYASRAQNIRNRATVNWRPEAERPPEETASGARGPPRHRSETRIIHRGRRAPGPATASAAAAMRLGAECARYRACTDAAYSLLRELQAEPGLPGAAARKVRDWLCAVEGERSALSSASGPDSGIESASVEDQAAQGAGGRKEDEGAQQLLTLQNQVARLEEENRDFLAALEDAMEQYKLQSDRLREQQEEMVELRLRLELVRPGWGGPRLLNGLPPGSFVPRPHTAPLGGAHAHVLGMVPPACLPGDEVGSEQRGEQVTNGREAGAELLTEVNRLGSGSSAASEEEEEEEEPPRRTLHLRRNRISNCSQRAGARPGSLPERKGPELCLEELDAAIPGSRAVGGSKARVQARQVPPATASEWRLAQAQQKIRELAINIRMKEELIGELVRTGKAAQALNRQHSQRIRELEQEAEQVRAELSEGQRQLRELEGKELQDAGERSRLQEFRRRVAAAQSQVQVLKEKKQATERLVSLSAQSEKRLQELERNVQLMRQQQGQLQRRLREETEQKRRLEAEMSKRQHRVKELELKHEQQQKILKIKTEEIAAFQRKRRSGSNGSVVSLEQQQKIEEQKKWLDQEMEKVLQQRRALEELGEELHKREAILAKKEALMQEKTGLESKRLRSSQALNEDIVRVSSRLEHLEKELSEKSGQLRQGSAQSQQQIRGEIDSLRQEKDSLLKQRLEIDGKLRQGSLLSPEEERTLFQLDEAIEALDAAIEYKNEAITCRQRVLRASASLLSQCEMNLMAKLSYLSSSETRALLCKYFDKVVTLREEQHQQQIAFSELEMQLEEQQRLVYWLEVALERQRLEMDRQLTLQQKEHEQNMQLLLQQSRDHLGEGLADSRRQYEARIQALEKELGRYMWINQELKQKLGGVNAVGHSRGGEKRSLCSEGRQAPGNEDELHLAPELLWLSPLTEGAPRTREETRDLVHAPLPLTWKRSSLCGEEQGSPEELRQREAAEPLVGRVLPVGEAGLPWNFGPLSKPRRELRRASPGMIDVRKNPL

[4] = target: MPP1 (Homo sapiens, UniProt Q96Q89); experiment: Kinesin panel, basal and MT-stimulated ATPase, MPP1; format: biochemical; conditions: data not shown
[5] = target: T3, MKLP-2 (Homo sapiens, UniProt O95235); experiment: Kinesin panel, basal and MT-stimulated ATPase, MKLP-2; format: biochemical; conditions: data not shown
T3 sequence (O95235 1-890): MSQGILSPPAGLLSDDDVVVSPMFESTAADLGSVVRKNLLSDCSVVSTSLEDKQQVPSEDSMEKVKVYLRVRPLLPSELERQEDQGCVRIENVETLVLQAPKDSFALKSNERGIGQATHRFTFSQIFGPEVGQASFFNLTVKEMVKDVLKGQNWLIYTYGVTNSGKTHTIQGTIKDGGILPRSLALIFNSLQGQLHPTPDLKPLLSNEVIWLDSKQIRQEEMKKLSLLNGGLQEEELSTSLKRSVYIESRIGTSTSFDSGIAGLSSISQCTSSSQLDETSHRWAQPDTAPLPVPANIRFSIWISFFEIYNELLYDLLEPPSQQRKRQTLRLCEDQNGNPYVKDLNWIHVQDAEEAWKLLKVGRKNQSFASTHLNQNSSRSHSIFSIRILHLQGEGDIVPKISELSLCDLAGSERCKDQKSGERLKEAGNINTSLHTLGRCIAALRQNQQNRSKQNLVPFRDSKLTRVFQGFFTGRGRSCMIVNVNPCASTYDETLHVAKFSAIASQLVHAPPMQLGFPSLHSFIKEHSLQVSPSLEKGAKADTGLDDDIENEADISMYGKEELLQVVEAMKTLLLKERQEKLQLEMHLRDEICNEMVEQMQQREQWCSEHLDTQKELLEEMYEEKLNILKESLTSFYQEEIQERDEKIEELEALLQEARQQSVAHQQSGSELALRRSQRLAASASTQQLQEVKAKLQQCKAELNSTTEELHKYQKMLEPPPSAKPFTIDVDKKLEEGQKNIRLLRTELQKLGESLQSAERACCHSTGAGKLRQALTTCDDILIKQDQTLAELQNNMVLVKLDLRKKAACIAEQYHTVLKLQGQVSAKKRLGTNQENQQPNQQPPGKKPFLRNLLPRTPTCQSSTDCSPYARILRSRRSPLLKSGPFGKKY

[6] = target: CENP-E (Homo sapiens, UniProt Q02224); experiment: Kinesin panel, basal and MT-stimulated ATPase, CENP-E; format: biochemical; conditions: data not shown
[7] = Human microsomal stability; conditions: human microsomes, 3 µM
[8] = Mouse microsomal stability; conditions: mouse microsomes, 3 µM
[9] = Human plasma protein binding, equilibrium dialysis; conditions: 50%

MPP1, sequence (Q96Q89 whole entry): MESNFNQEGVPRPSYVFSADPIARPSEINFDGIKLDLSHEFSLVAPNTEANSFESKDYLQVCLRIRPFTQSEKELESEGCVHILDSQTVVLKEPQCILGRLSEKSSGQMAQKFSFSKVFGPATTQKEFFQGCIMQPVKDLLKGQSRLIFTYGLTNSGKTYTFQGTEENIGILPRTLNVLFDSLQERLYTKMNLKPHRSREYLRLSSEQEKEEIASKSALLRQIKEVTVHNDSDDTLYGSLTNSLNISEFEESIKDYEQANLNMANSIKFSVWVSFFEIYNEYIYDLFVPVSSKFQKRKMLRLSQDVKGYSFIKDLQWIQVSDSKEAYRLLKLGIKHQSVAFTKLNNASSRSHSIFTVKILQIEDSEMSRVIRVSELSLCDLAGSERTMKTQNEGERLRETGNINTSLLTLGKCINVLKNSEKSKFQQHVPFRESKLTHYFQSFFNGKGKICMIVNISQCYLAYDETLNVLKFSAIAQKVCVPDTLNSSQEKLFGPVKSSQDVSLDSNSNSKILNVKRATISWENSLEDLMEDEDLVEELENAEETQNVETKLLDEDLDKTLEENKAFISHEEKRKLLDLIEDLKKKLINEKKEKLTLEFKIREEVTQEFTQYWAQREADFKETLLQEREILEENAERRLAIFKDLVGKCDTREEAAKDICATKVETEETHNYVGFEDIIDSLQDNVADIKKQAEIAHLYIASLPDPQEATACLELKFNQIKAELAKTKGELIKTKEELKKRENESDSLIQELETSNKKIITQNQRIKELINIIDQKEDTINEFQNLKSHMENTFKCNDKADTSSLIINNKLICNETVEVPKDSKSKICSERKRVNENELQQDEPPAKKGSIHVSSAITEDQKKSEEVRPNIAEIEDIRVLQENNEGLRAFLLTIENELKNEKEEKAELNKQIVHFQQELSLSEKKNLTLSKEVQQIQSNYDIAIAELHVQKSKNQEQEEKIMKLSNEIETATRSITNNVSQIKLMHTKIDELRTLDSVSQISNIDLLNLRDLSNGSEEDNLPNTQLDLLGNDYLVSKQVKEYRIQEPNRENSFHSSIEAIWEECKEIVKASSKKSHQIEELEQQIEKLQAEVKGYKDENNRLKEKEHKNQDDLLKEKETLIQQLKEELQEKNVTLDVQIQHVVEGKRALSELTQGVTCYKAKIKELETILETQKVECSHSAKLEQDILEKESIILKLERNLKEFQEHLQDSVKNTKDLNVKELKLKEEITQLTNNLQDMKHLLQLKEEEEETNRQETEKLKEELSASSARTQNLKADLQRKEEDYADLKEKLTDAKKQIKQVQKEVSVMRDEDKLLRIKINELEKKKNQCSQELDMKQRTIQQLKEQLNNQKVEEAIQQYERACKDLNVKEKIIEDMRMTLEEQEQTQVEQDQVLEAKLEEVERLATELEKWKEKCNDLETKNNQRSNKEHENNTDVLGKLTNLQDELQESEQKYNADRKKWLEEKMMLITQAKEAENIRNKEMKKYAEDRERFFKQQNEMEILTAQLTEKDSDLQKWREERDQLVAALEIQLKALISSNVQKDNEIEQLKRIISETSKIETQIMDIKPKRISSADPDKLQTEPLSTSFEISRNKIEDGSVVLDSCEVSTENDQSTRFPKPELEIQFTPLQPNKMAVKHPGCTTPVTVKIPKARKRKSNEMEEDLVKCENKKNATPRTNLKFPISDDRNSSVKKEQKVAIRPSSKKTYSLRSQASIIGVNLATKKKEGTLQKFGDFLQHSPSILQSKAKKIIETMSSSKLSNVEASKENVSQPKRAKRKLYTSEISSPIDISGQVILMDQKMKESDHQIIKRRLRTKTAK
CENP-E, sequence (Q02224 whole entry): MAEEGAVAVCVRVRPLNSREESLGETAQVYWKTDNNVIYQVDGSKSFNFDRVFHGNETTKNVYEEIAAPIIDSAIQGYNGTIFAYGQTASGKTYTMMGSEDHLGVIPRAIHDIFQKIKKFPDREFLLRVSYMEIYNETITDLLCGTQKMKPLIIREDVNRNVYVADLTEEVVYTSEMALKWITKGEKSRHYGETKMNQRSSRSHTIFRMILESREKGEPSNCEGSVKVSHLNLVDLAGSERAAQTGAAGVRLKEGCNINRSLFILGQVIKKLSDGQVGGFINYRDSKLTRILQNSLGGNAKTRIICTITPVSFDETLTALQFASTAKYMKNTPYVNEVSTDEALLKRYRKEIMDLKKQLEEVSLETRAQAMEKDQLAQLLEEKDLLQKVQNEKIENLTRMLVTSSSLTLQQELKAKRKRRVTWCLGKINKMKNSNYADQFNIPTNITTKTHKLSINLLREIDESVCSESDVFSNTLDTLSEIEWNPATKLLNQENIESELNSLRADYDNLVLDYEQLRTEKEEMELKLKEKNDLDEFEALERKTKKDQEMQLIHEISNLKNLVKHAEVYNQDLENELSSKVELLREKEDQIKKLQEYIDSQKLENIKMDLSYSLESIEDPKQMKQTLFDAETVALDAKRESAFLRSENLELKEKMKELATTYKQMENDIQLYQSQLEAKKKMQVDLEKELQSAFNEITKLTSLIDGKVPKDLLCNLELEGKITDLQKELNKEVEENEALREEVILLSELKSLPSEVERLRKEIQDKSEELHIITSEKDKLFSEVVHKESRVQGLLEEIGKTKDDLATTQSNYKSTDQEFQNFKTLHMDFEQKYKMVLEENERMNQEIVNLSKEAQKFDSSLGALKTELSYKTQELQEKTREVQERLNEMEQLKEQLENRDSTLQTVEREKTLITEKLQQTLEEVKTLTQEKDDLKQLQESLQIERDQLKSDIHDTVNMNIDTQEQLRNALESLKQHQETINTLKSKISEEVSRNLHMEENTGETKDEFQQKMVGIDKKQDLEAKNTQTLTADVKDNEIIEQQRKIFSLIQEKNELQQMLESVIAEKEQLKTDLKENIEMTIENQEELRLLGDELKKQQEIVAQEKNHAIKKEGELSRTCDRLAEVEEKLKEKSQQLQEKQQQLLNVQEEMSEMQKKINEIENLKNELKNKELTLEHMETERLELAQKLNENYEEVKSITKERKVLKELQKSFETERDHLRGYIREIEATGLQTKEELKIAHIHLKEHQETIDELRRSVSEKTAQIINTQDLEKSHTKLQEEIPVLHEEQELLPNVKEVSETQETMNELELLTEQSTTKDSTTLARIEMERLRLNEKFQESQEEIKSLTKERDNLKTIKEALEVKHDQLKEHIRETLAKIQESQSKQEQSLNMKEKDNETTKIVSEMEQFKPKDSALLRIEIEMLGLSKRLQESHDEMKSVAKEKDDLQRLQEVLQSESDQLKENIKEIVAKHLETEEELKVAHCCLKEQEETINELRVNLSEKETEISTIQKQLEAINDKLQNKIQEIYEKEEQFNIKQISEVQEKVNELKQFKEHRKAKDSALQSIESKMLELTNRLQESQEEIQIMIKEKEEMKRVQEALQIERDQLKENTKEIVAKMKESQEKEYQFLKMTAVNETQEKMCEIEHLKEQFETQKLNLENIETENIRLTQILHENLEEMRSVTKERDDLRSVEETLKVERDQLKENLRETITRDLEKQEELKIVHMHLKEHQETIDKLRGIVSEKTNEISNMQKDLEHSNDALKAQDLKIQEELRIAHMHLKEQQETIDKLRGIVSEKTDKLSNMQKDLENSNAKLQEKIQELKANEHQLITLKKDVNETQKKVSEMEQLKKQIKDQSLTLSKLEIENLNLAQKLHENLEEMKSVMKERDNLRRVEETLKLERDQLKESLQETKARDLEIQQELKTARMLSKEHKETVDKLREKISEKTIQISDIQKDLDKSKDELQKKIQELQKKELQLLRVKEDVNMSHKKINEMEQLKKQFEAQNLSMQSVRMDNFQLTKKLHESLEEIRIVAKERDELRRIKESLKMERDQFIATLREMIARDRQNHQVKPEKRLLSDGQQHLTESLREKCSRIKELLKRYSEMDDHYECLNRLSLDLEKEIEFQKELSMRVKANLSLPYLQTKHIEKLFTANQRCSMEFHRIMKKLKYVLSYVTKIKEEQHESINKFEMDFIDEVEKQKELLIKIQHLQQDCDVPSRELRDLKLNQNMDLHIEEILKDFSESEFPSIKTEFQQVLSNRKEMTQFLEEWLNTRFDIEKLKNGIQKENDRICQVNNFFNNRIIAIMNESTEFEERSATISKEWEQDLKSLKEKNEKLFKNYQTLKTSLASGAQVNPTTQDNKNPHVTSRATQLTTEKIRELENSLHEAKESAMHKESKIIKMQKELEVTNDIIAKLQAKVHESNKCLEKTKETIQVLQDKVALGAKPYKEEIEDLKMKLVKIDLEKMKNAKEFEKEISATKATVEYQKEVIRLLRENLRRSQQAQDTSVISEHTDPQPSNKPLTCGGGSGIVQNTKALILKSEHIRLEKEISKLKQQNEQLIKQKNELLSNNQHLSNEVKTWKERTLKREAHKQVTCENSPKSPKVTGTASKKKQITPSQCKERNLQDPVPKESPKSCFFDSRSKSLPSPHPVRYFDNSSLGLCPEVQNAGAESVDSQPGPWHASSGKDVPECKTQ

SMILES	GI50 [1]	inhibition of basal and MT-stimulated ATPase activities, Kif5a [2]	inhibition of basal and MT-stimulated ATPase activities, Kif7 [3]	inhibition of basal and MT-stimulated ATPase activities, MPP1 [4]	inhibition of basal and MT-stimulated ATPase activities, MKLP-2 [5]	inhibition of basal and MT-stimulated ATPase activities, CENP-E [6]	turbidimetric solubility pH 7.4	microsomal stability, Clint, human [7]	microsomal stability, Clint, mice [8]	recovery at 5 µM [9]
Cc1cccc(C(CCC(N)C(=O)O)(c2ccccc2)c2ccccc2)c1 (racemic) [rac-29, 2-Amino-5-(3-methylphenyl)-5,5-diphenylpentanoic acid]	91 ± 9 nM	did not observe any significant inhibition	did not observe any significant inhibition	did not observe any significant inhibition	did not observe any significant inhibition	did not observe any significant inhibition				
Cc1cccc(C(CCCN)(c2ccccc2)c2ccccc2)c1 [compound 30, 4-(3-Methylphenyl)-4,4-diphenylbutan-1-amine]							>100, >100, >100 μM	stable	high microsomal clearance	69.1%
